Experimental data published in ChEMBL document CHEMBL4765339, “Design, synthesis, and biological evaluation of 4-substituted-3,4-dihydrobenzo[h]quinoline-2,5,6(1H)-triones as NQO1-directed antitumor agents” (Eur J Med Chem, 2020).

Legend:
[1] = Selectivity index, ratio of GI50 for human HepG2 cells pretreated for 1 hr with ROS scavenger, N-acetyl cysteine followed by incubation with compound for 48 hrs to GI50 for human HepG2 cells measured after 48 hrs by MTT assay; assay type: functional
HepG2 [2] = experiment: Induction of apoptosis in human HepG2 cells assessed as early apoptotic cells at 4.4 uM incubated for 24 hrs by annexinV-FITC and PI staining based flow cytometry analysis (reference value: 2.65 %); assay type: functional
HepG2 [3] = experiment: Induction of mitochondrial membrane potential loss in human HepG2 cells at 1.1 uM incubated for 48 hrs by JC-1 staining based flow cytometry analysis (reference value: 2.06 %); assay type: functional
HepG2 [4] = experiment: Induction of apoptosis in human HepG2 cells assessed as viable cells at 1.1 uM incubated for 24 hrs by annexinV-FITC and PI staining based flow cytometry analysis (reference value: 94.73 %); assay type: functional; conditions: read-out: Activity
A549 = experiment: Cytotoxicity against human A549 cells assessed as reduction in cell growth incubated for 48 hrs by MTT assay; assay type: functional
HepG2 [5] = experiment: Cytotoxicity against human HepG2 cells assessed as reduction in cell growth pretreated for 1 hr with ROS scavenger, N-acetyl cysteine followed by incubation with compound for 48 hrs by MTT assay; assay type: functional
HepG2 [6] = experiment: Induction of apoptosis in human HepG2 cells assessed as late apoptotic cells at 2.2 uM incubated for 24 hrs in presence of dicoumarol by annexinV-FITC and PI staining based flow cytometry analysis (reference value: 2.27 %); assay type: functional
HepG2 [7] = experiment: Induction of cell cycle arrest in human HepG2 cells assessed as accumulation at S/G2 phase at 3 uM incubated for 24 hrs by PI staining based flow cytometry analysis (reference value: 35.2 %); assay type: functional
MCF7 = experiment: Cytotoxicity against NQO1-rich human MCF7 cells assessed as reduction in cell growth incubated for 48 hrs by MTT assay; assay type: functional
[8] = target: NAD(P)H dehydrogenase [quinone] 1 (Homo sapiens) (UniProt P15559); experiment: Substrate activity at recombinant human C-terminal His-tagged NQO1 (1 to 274 residues) expressed in Escherichia coli assessed as enzyme activity by measuring oxidation of NADPH incubated for 5 mins measured per micromol of enzyme every 5 sec for 1 mins by UV-visible spectrophotometry
HepG2 [9] = experiment: Induction of apoptosis in human HepG2 cells assessed as necrotic cells at 1.1 uM incubated for 24 hrs by annexinV-FITC and PI staining based flow cytometry analysis (reference value: 0.35 %); assay type: functional
HepG2 [10] = experiment: Induction of apoptosis in human HepG2 cells assessed as early apoptotic cells at 2.2 uM incubated for 24 hrs in presence of dicoumarol by annexinV-FITC and PI staining based flow cytometry analysis (reference value: 2.65 %); assay type: functional

COc1ccc(C2CC(=O)NC3=C2C(=O)C(=O)c2ccccc23)cc1O (configuration not stated)
RatioGI50 [1]: 2 | Activity (HepG2 [2]): 14.96% | Activity (HepG2 [3]): 7.42% | viability at 1.1 µM (HepG2 [4]): 82.4% | GI50 (A549): 3.13 µM | GI50 (HepG2 [5]): 5.65 µM | Activity (HepG2 [6]): 9.46% | Activity (HepG2 [7]): 41.4% | GI50 (MCF7): 3.06 µM | Activity [8]: 2770 µmol/min | Activity (HepG2 [9]): 0.77% | Activity (HepG2 [10]): 8.28%
